Test results taken from PubChem BioAssay AID1963856 (Molecular Pharmacology Branch, DTP, NCI, 2024).
pIC50: −log10 of the molar value.

Test system: LG0567-F671-PDC KRAS tumor spheroid viability
Assay: Anticancer human tumor LG0567-F671-PDC patient-derived lung adenocarcinoma cell line growth inhibition [KRAS2]
Settings: spheroids with HUVEC and MSC; for pIC50: curve of first compound; for viability, T/C: stronger effect = lower value; active = viability on the fitted dose curve at most 10% of control; inactive = the rest
Excerpt: Multicellular complex tumor spheroid response to RAS pathway inhibitors in combination with a targeted agents in patient-derived cell lines with oncogenic KRAS variants from multiple cancer types
A high-throughput screen of multi-cell type tumor spheroids was designed to identify active combinations of targeted small molecules and KRAS pathway inhibitors. Complex spheroids include a stromal component modeled by human endothelial cells (HUVEC) and fibroblasts modeled by human mesenchymal stem cells (MSCs). The concentration ranges selected for each drug and investigational agent were based upon clinically achievable concentrations if the clinical Cmax of the agent was known.
Compounds. The drugs and investigational agents: BI-3406 (NSC825286), BAY-293 (NSC824723), batoprotafib (TNO155; NSC825523), sotorasib (AMG 510; NSC818433), MRTX1257 (NSC819558), elimusertib (BAY 1895344; NSC800525), molibresib (GSK525762; NSC774829), temuterkib (LY3214996; NSC803410), venetoclax (NSC766270), alisertib (NSC759677), olaparib (NSC753686), talazoparib (NSC767125), erdafitinib (NSC781556), ipatasertib (NSC767898), cabozantinib (NSC761068), nintedanib (NSC756659), abemaciclib (NSC768073), docetaxel (NSC628503), trametinib (NSC758246), and sapanisertib (NSC764658) were obtained from the National Cancer Institute (NCI) Developmental Therapeutics Program Chemical Repository. The FDA-approved anticancer drug set is available from the Developmental Therapeutics Program. […] The stock solutions were prepared in dimethyl sulfoxide (DMSO, Sigma-Aldrich, St. Louis, MO, cat. D2650) at 800-fold the tested concentration and stored at -70 degrees C prior to their use. All drugs and investigational agents were tested over a range starting from a high concentration at or near the clinical Cmax and decreasing in half-log increments. If the clinical Cmax for an agent had not been determined, the highest concentration tested was 10 microM.
Cell Culture. All cells were maintained in an incubator at 37 degrees C and 5% CO2 with 95% humidity. The PDC lines were cultured according to standard operating procedures established by the NCI PDMR (https://pdmr.cancer.gov/sops/default.htm). Briefly, all PDCs were thawed and cultured in Matrigel-coated flasks prepared with a working solution of 1X Ham's F-12 nutrient mix, without supplementation (Invitrogen, Waltham, MA, cat. 11765054), 100 U/mL penicillin-streptomycin (Invitrogen, cat. 15140122), and 2.5% Matrigel (Corning Inc., Corning, NY, cat. 354248) for the first three passages. All PDCs were cultured in complete DMEM/F-12 media containing advanced DMEM/F-12 (Invitrogen, cat. 12634028), 4.9% defined fetal bovine serum, heat inactivated (HyClone Laboratories Inc., Logan, UT, cat. SH30070.03HI), 389 ng/mL hydrocortisone (Sigma-Aldrich, cat. H4001), 9.7 ng/mL human EGF recombinant protein (Invitrogen, cat. PHG0313), 23.4 microg/mL adenine (Sigma-Aldrich, cat. A2786), 97.3 U/mL penicillin-streptomycin (Invitrogen, cat. 15140122), 1.9 mM L-glutamine (Invitrogen, cat. 25030081), and 9.7 microM Y-27632 dihydrochloride (Tocris Bioscience, Bristol, United Kingdom, cat. 1254). The PDCs were cultured in complete DMEM/F12 media without 9.7 microM Y-27632 dihydrochloride for at least two passages prior to the screen. The established cell line HOP-62 was cultured in RPMI 1640 medium, HEPES (Invitrogen, cat. 22400105) with 10% defined fetal bovine serum (HyClone Laboratories Inc., cat. SH30070.03) and 2 mM L-glutamine (Invitrogen, cat. 25030081). The pooled donor HUVEC were cultured in endothelial cell growth medium 2 (PromoCell, Heidelberg, Germany, cat. C-22011) and the hMSC were cultured in mesenchymal stem cell growth medium 2 (PromoCell, cat. C-28009). For all experiments, HUVEC and hMSC were used at passages </=5, while the malignant cell lines were used at passages </=15. […]

[1] = second compound 0.1 µM, first compound 0.0316 µM
[2] = second compound 0.1 µM, first compound 0.1 µM
[3] = second compound 0.316 µM, first compound 0.0316 µM
[4] = second compound 0.316 µM, first compound 0.1 µM
[5] = second compound 1 µM, first compound 0.0316 µM
[6] = second compound 1 µM, first compound 0.1 µM
[7] = second compound 3.16 µM, first compound 0.0316 µM
[8] = second compound 3.16 µM, first compound 0.1 µM
[9] = second compound 10 µM, first compound 0.0316 µM
[10] = second compound 10 µM, first compound 0.1 µM
[11] = second compound 0.1 µM, first compound 0.316 µM
[12] = second compound 0.1 µM, first compound 1 µM
[13] = second compound 0.1 µM, first compound 3.16 µM
[14] = second compound 0.1 µM, first compound 10 µM
[15] = second compound 0.316 µM, first compound 0.316 µM
[16] = second compound 0.316 µM, first compound 1 µM
[17] = second compound 0.316 µM, first compound 3.16 µM
[18] = second compound 0.316 µM, first compound 10 µM
[19] = second compound 1 µM, first compound 0.316 µM
[20] = second compound 1 µM, first compound 1 µM
[21] = second compound 1 µM, first compound 3.16 µM
[22] = second compound 1 µM, first compound 10 µM
[23] = second compound 3.16 µM, first compound 0.316 µM
[24] = second compound 3.16 µM, first compound 1 µM
[25] = second compound 3.16 µM, first compound 3.16 µM
[26] = second compound 3.16 µM, first compound 10 µM
[27] = second compound 10 µM, first compound 0.316 µM
[28] = second compound 10 µM, first compound 1 µM
[29] = second compound 10 µM, first compound 3.16 µM
[30] = second compound 10 µM, first compound 10 µM
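Note: drug exposure lasted seven days after spheroids formed for three days.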

CC(C)n1nc(-c2ccc3oc(N)nc3c2)c2c(N)ncnc21 + C=CC(=O)N1CCN(c2nc(=O)n(-c3c(C)ccnc3C(C)C)c3nc(-c4c(O)cccc4F)c(F)cc23)C(C)C1
> 9.50: pIC50 (second compound 0.1 µM) | pIC50 (second compound 0.316 µM) | pIC50 (second compound 1 µM) | pIC50 (second compound 3.16 µM) | pIC50 (second compound 10 µM)
active: viability, T/C [1] 9.02% | viability, T/C [2] 8.13% | viability, T/C [3] 8.62% | viability, T/C [4] 7.08% | viability, T/C (second compound 1 µM, first compound 0.01 µM) 10.8% | viability, T/C [5] 8.47% | viability, T/C [6] 6.2% | viability, T/C [7] 7.41% | viability, T/C [8] 8.01%
inactive: viability, T/C (second compound 0.1 µM, first compound 0.000316 µM) 21.4% | viability, T/C (second compound 0.1 µM, first compound 0.001 µM) 17.1% | viability, T/C (second compound 0.1 µM, first compound 0.00316 µM) 14.8% | viability, T/C (second compound 0.1 µM, first compound 0.01 µM) 11.4% | viability, T/C (second compound 0.316 µM, first compound 0.000316 µM) 20.6% | viability, T/C (second compound 0.316 µM, first compound 0.001 µM) 20% | viability, T/C (second compound 0.316 µM, first compound 0.00316 µM) 17.2% | viability, T/C (second compound 0.316 µM, first compound 0.01 µM) 11% | viability, T/C (second compound 1 µM, first compound 0.000316 µM) 23.9% | viability, T/C (second compound 1 µM, first compound 0.001 µM) 14.5% | viability, T/C (second compound 1 µM, first compound 0.00316 µM) 14% | viability, T/C (second compound 3.16 µM, first compound 0.000316 µM) 20.2% | viability, T/C (second compound 3.16 µM, first compound 0.001 µM) 15.8% | viability, T/C (second compound 3.16 µM, first compound 0.00316 µM) 12.9% | viability, T/C (second compound 3.16 µM, first compound 0.01 µM) 10.2% | viability, T/C (second compound 10 µM, first compound 0.000316 µM) 20.3% | viability, T/C (second compound 10 µM, first compound 0.001 µM) 16.8% | viability, T/C (second compound 10 µM, first compound 0.00316 µM) 13.4% | viability, T/C (second compound 10 µM, first compound 0.01 µM) 13.1% | viability, T/C [9] 10.9% | viability, T/C [10] 10.3%

CC1(C)CCC(CN2CCN(c3ccc(C(=O)NS(=O)(=O)c4ccc(NCC5CCOCC5)c([N+](=O)[O-])c4)c(Oc4cnc5[nH]ccc5c4)c3)CC2)=C(c2ccc(Cl)cc2)C1 + C=CC(=O)N1CCN(c2nc(=O)n(-c3c(C)ccnc3C(C)C)c3nc(-c4c(O)cccc4F)c(F)cc23)C(C)C1
inactive: viability, T/C [1] 31.9% | viability, T/C [2] 28.1% | viability, T/C [11] 26.2% | viability, T/C [12] 25.7% | viability, T/C [13] 11.7% | viability, T/C [3] 27.2% | viability, T/C [4] 28.8% | viability, T/C [15] 25.4% | viability, T/C [16] 23.1% | viability, T/C [17] 16.5% | viability, T/C [18] 6.09% | viability, T/C [5] 27.2% | viability, T/C [6] 28.5% | viability, T/C [19] 25.9% | viability, T/C [20] 22.8% | viability, T/C [21] 11.2% | viability, T/C [7] 29% | viability, T/C [8] 28.6% | viability, T/C [23] 27.6% | viability, T/C [24] 27.1% | viability, T/C [25] 11.1% | viability, T/C [9] 25.8% | viability, T/C [10] 26.3% | viability, T/C [27] 24.9% | viability, T/C [28] 25.6% | viability, T/C [29] 5.1%
> 7.50: pIC50 (second compound 0.1 µM) | pIC50 (second compound 0.316 µM) | pIC50 (second compound 1 µM) | pIC50 (second compound 3.16 µM) | pIC50 (second compound 10 µM)
active: viability, T/C [14] 2.83% | viability, T/C [22] 3.32% | viability, T/C [26] 2.68% | viability, T/C [30] 6.11%

COc1cc2nccc(Oc3ccc(NC(=O)C4(C(=O)Nc5ccc(F)cc5)CC4)cc3)c2cc1OC + C=CC(=O)N1CCN(c2nc(=O)n(-c3c(C)ccnc3C(C)C)c3nc(-c4c(O)cccc4F)c(F)cc23)C(C)C1
inactive: viability, T/C [1] 24.2% | viability, T/C [2] 20.6% | viability, T/C [11] 21.3% | viability, T/C [12] 18.9% | viability, T/C [13] 10.8% | viability, T/C [14] 48.9% | viability, T/C [3] 21.5% | viability, T/C [4] 19.1% | viability, T/C [15] 17.1% | viability, T/C [16] 14.9% | viability, T/C [17] 9.77% | viability, T/C [18] 51.1% | viability, T/C [5] 22.3% | viability, T/C [6] 23.9% | viability, T/C [19] 17.6% | viability, T/C [20] 17.3% | viability, T/C [21] 9.01% | viability, T/C [22] 55% | viability, T/C [7] 21.8% | viability, T/C [8] 23.4% | viability, T/C [23] 20.3% | viability, T/C [24] 16.8% | viability, T/C [25] 8.81% | viability, T/C [26] 50.4% | viability, T/C [9] 18.3% | viability, T/C [10] 18.4% | viability, T/C [27] 17.6% | viability, T/C [28] 13.7% | viability, T/C [29] 10.7% | viability, T/C [30] 29.2%
> 7.50: pIC50 (second compound 0.1 µM) | pIC50 (second compound 0.316 µM) | pIC50 (second compound 1 µM) | pIC50 (second compound 3.16 µM) | pIC50 (second compound 10 µM)
